Several values for one entry are separate records, joined by “and”; a condition that tells them apart may be missing. Identical values can stand only once.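 Results reflect a 48-hour exposure of cells in 96-well plates to compound at five concentrations. Abbreviation: GI50, concentration required for 50% inhibition of growth. TGI denotes the concentration required for complete inhibition of growth.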
Tests used:
Test in all cases: NCI anticancer screen, dose series, 48 h
HT29 colon = tested on: HT29 colon
HS 578T breast = tested on: HS 578T breast
HOP-62 NSCLC = tested on: HOP-62 NSCLC
CCRF-CEM leukemia = tested on: CCRF-CEM leukemia
NCI/ADR-RES ovarian = tested on: NCI/ADR-RES ovarian
MOLT-4 leukemia = tested on: MOLT-4 leukemia
MDA-MB-231 breast = tested on: MDA-MB-231 breast
CAKI-1 renal = tested on: CAKI-1 renal
A498 renal = tested on: A498 renal
UACC-257 melanoma = tested on: UACC-257 melanoma
HCC-2998 colon = tested on: HCC-2998 colon
NCI-H23 lung = tested on: NCI-H23 lung
OVCAR-4 ovarian = tested on: OVCAR-4 ovarian
SR leukemia = tested on: SR leukemia
NCI-H226 lung = tested on: NCI-H226 lung
MDA-MB-435 = tested on: MDA-MB-435
M14 melanoma = tested on: M14 melanoma

| Structure (SMILES) | TGI (HT29 colon) [µM] | TGI (HS 578T breast) [µM] | TGI (HOP-62 NSCLC) [µM] | TGI (CCRF-CEM leukemia) [µM] | TGI (NCI/ADR-RES ovarian) [µM] | TGI (MOLT-4 leukemia) [µM] | TGI (MDA-MB-231 breast) [µM] | TGI (CAKI-1 renal) [µM] | TGI (A498 renal) [µM] | TGI (UACC-257 melanoma) [µM] | TGI (HCC-2998 colon) | TGI (NCI-H23 lung) [µM] | TGI (OVCAR-4 ovarian) [µM] | TGI (SR leukemia) [µM] | TGI (NCI-H226 lung) [µM] | TGI (MDA-MB-435) [µM] | TGI (M14 melanoma) [µM] | GI50 (MDA-MB-435) | GI50 (M14 melanoma) |
| --- | --- | --- | --- | --- | --- | --- | --- | --- | --- | --- | --- | --- | --- | --- | --- | --- | --- | --- | --- |
| c1csc(-c2cc(-c3ccsc3)c(-c3cccs3)s2)c1 | > 100 | > 100 | > 100 | > 100 | > 100 | > 100 | > 100 | > 100 | > 100 | > 100 | > 100 µM | > 100 | > 100 | > 100 | > 100 | > 100 | > 100 |  |  |
| CNC(=O)OC(C)CN1c2ccccc2Sc2ccccc21 (stereo not drawn) | > 100 | > 100 | > 100 | > 100 | > 100 | > 100 | > 100 | > 100 | > 100 | > 100 | > 100 µM | > 100 | > 100 | > 100 | > 100 | > 100 | > 100 |  |  |
| Cn1c2nc(=Nc3ccc(Cl)cc3)n3ccc4ccccc4c3c2c(=O)n1-c1ccccc1 | > 100 | > 100 | > 100 |  | > 100 | > 100 | > 100 | > 100 | > 100 | > 100 | > 100 µM | > 100 | > 100 | > 100 | > 100 | > 100 |  |  |  |
| O=C1c2ccccc2C(=O)c2[nH]c(=O)c(/C=N/Nc3ccc([N+](=O)[O-])cc3)nc21 | > 21.5 | 21.1 | > 21.3 | > 100 | > 61.6 | > 78.6 | > 51.6 | > 75.2 | 14.2 | 5.88 | 4.78 µM | 3.79 | > 75.5 | > 65.2 | 4.45 | 3.99 | 5.01 |  |  |
| COc1ccc(OC)c2c1C(=O)C(Cl)=C(Cl)C2=O | 15.5 | 6.06 |  | > 100 | 5.74 | 8.87 | 6.57 | 7.99 | 41.6 | 4.68 | 31.2 µM | 19.2 | 13 | > 88 | 42.2 | 5.88 | 6.46 |  |  |
| N#C/C(=C\N1CCNC1=S)C(=O)c1ccc2ccccc2c1 | > 100 | > 100 | > 100 |  | > 100 | > 100 | > 100 | > 100 | > 100 | > 100 | > 100 µM | > 100 | > 100 | > 100 | > 100 | > 100 | > 100 |  |  |
| Oc1ccc2ccccc2c1N=Nc1ccc(N=Nc2ccccc2)cc1 | > 100 | > 100 | > 100 | > 100 | > 100 | > 100 | > 100 | > 100 | > 100 | > 100 |  | > 100 | > 100 | 88.2 | > 100 | > 100 | > 100 |  |  |
| OC(CCN1CCN(CCOC(c2ccc(F)cc2)c2ccc(F)cc2)CC1)c1ccccc1 (stereo not drawn) | 21.6 | 37.3 | 36.5 | 45.6 | 26.8 | 29.1 | 28.8 | 33.6 | 19.5 | 42.5 | 12.4 µM | 31.1 | 39.4 | 33.3 | 34.4 | 38.9 | 28 |  |  |
| Nc1nonc1-c1noc(-c2nonc2N)[n+]1[O-] | 33.6 | > 100 | > 100 | 32.8 | > 100 | > 100 | > 100 | 51.6 | > 100 | > 100 | > 100 µM | > 100 | > 100 | > 100 | > 100 | > 100 | > 100 |  |  |
| C[C@@H]1O[C@@H]2OCC[C@@H]2C2=C1C(=O)c1ccccc1C2=O | > 100 | > 100 | 31.5 | 33.8 | 14 | > 100 | > 100 | 29.8 | 32.4 | 24.5 | 35.4 µM | 23.4 | 16.4 | 28.1 | 61.5 | 3.69 | 14.2 |  |  |
| O=C(Nc1ccccc1)N1CC(CN2CCN(c3ccccc3)CC2)OC1=O (stereo not drawn) | > 100 | > 100 | > 100 | > 100 | > 100 | > 100 | > 100 | > 100 | > 100 | > 100 | > 100 µM | > 100 | > 100 | > 100 | > 100 | > 100 | > 100 |  |  |
| c1ccc(N=C2SC(c3ccccc3)CN2C23CC4CC(CC(C4)C2)C3)cc1 (stereo not drawn) | > 100 | > 100 | > 100 | > 100 | > 100 | > 100 | > 100 | > 100 | > 100 | > 100 | > 100 µM | > 100 | > 100 | > 100 | > 100 | > 100 | > 100 |  |  |
| COC(=O)c1ccc(NCc2cc(O)c3ccccc3c2O)cc1 | 48.5 | 98.2 | 32.5 | 16.3 | 94.3 | 9.73 | 6.02 | 13.4 | 36.7 | 20.5 | 39.9 µM | 30.3 | 25.9 | 21.7 | 40 | 4.63 |  |  |  |
| CCCCCCCCCCCCCC/C(=C/OCC[N+](C)(C)C)OC(C)=O (tested in a mixture with another compound) | 1.82 | 5.26 | 5.8 | 3.67 | 44.2 |  | 4.83 | 4.04 | 6.99 | 8.91 | 13.4 µM | 7.65 | 7.7 | 4.57 | 14.7 | 7.49 | 7.12 |  |  |
| CC(C)Nc1n[nH]c(=O)n1C(C)C | > 100 | > 100 | > 100 | > 100 | > 100 | > 100 | > 100 | > 100 | > 100 | > 100 |  | > 100 |  | > 100 | > 100 | > 100 | > 100 |  |  |
| CCCCC/C=C1\CCC(CN2CCOCC2)C1=O (stereo not drawn) | 35.7 | > 100 | 54.5 | 29.9 | 54.6 | 7.55 | > 23.2 | 9.79 | 33.9 | 24.5 | 27.7 µM | 29.8 | 48 | 12.1 | 33.5 | 17.8 | 16.9 |  |  |
| CCOC(=O)c1c(N2CCOCC2)[nH]c(=O)c(C(c2ccc(N(C)C)cc2)c2c(O)c(C(=O)OCC)c(N3CCOCC3)[nH]c2=O)c1O | > 100 | > 100 | > 100 | > 100 | > 100 | > 100 | > 100 | > 100 | > 100 | > 100 | > 100 µM | > 100 | > 100 | > 100 | > 100 | > 100 | > 100 |  |  |
| CNC(=S)N/N=C(\C)c1ccc(OC)cc1O | > 100 | > 100 | > 100 | > 100 | > 100 | > 100 | > 100 | > 100 | > 100 | > 100 | > 100 µM | > 100 | 94.2 | > 100 | > 100 | > 100 | > 100 |  |  |
| CCCCCCCCCCCCCCCCCCNc1ccn(C2OC(COP(=O)(O)OCCCCCCCCCCCCCCCC)C(O)C2O)c(=O)n1 (stereo not drawn) | > 100 | > 100 | > 100 | > 100 | > 100 | > 100 | > 100 | > 100 | > 100 | > 100 | > 100 µM | > 100 | > 100 | > 100 | > 100 | > 100 | > 100 |  |  |
| COC(=O)C1=C(C(=O)OC)C2(/N=C(\Nc3ccccc3)c3ccccc3)N(c3ccc(OC)cc3)CC(c3ccccc3)N2O1 (stereo not drawn) | > 100 | > 100 | > 100 | > 100 | > 100 | > 100 | > 100 | > 100 | > 100 | > 100 |  | > 100 | > 100 | > 100 |  | > 100 | > 100 |  |  |
| COC(=O)c1c(C)cccc1C1CN=NC12Cc1c(C)cccc1C2=O (stereo not drawn) | > 100 | > 100 | > 100 | > 100 | > 100 | > 100 | > 100 | > 100 | > 100 | > 100 | > 100 µM | > 100 | > 100 | > 100 | > 100 | > 100 | > 100 |  |  |
| Cc1nnc2sc(-c3ccc(N)cc3)nn12 | > 100 | > 100 | > 100 | > 100 | > 100 | > 100 | > 100 | > 100 |  | > 100 | > 100 µM | > 100 | > 100 | > 100 | > 100 | > 100 | > 100 |  |  |
| COc1cc(CSc2ccc(O)cc2)cc(O)c1O | 46.8 | > 100 | > 100 | 87 | 71.3 | > 100 | 73.5 | 91.2 | > 100 | > 100 | > 100 µM | > 100 |  | > 100 | 65.5 | 94.6 | 43.7 |  |  |
| Cc1ccc2c(c1)C(=O)C1(C2)Cc2ccc(C)cc2C1=O | > 100 | > 100 | > 100 | > 100 | > 100 | > 100 | > 100 | > 100 | > 100 | > 100 | > 100 µM | > 100 | > 100 | > 100 |  | > 100 | > 100 |  |  |
| CN(C)c1ncc(-c2c[nH]c3ccccc23)nc1-c1c[nH]c2ccccc12 | 4.93 | 9.5 | 22 |  | 88.3 | 27.5 | 4.62 | 11 | 4.56 | 3.89 | 4.1 µM |  | 17.8 | 10.8 |  | 12.1 | 3.99 |  |  |
| CC(=O)OCC1OC(Sc2nc(-c3ccc(C)cc3)c(C#N)c(=O)n2C2OC(COC(C)=O)C(OC(C)=O)C(OC(C)=O)C2OC(C)=O)C(OC(C)=O)C(OC(C)=O)C1OC(C)=O (stereo not drawn) | > 100 | > 100 | > 100 | > 100 | > 100 | > 100 | > 100 | > 100 | > 100 | > 100 | > 100 µM and 33.2 µM | > 100 |  | > 100 | > 100 | > 100 | > 100 | > 100 µM and 34.7 µM | > 100 µM and 43.3 µM |
| CCOc1ccccc1N=NC1C(=O)N(C(=O)CC(=O)Nc2ccccc2Cl)N=C1C (stereo not drawn) | > 100 | 89 | 68.8 | > 100 | > 100 | > 100 | > 100 | > 100 | > 100 |  | > 100 µM | > 100 | > 100 | > 100 | > 100 | > 100 | > 100 |  |  |
| COC(=O)C1=C(O)C(C(=O)OC)[C@@]2(O)[C@@H](C(=O)OC)C(c3ccc(OC(=O)/C(=C/c4ccccc4)c4ccccc4)cc3)C[C@@H]1[C@@H]2C(=O)OC (stereo partly drawn) | > 100 | > 100 | > 100 | > 100 | > 100 | > 100 | > 100 | > 100 | 96.4 | > 100 |  | > 100 | > 100 | > 100 | 42.6 | > 100 | 33 |  |  |

Reference: PubChem BioAssay (NCI)
